Results on five compounds are retold here after publication PMC8659060, “Neuroprotective Potential of Synthetic Mono-Carbonyl Curcumin Analogs Assessed by Molecular Docking Studies” (Molecules, 2021).

Where two headings read alike, the source gives them in different places.

Experiment [1] deals with scopolamine-induced memory impairment in mice. The experiment can be described thus: Novel object recognition test (NORT), scopolamine-induced memory impairment. The class given is in vivo, Balb/C mice. To be noted: for % DI in exploring the novel object versus scopolamine-treated group (in words): long-term memory, donepezil 2 mg/kg; for % DI in exploring the novel object versus scopolamine-treated group (in words) / Exploration time for the novel object in the test phase (in words): h compounds 7.5 and 15 mg/kg; for Exploration time for the novel object in the test phase (in words): DZP 2 mg/kg. The protocol:
(§1) Balb/C mice iwth a weight of (17–23 gm) were procured from the NIH (National Institute of Health), Islamabad, which were kept for breeding under favorable conditions in the animal house of the Pharmacy Department, Shaheed Benazir Bhutto University Sheringal Dir (Upper). Light/dark cycle of about 12 h each was maintained, with relative humidity of 50–55% at 22–25 °C. This work was conducted with approval from the Departmental Ethical Committee (SBBU/IEC-20-02) of the Scientific Procedure Issue-I of the University of Malakand in compliance with provision of the 2008 Animal Byelaws.
(§2) Mice were divided into thirteen groups with 6 mice in each group.
(§3) Group I. Normal control group (vehicle treated) received 10 mL/kg (i.p.) normal saline.
(§4) Group IV–XIII. Sample (curcumin analog)-treated groups. Synthesized curcumin analogs were administered in doses of 7.5 mg/kg and 15 mg/kg (p.o.), respectively.
(§5) The groups were kept for 7 days at various treatments doses.
The synthesized curcumin analogs were tested for possible memory enhancement potential by using novel object recognition test apparatus, which was designed using plexi glass with dimension of 40 cm × 40 cm × 30 cm. The mice, after acclimatization period, were allowed to move for 2–3 min one day before the test for habituation. In the two corners of the NORT apparatus, two identical objects were placed on the test day in the sample phase (T1), and the object exploration time was recorded. The objects were regarded as being explored when the mice touched the objects or directed their nose toward the object at a distance of less than 2 cm, […], the test phase (T2) was started, in which one of the familiar objects was replaced with a novel (new) object. Mice again freely explored the objects in similar manner to that in T1, and the exploration time for the novel (new) object and the familiar (F) object were noted separately. The DI (discrimination index) was measured using the following formula: DI=N−F/N+F

In experiment [2] the test system is scopolamine-induced amnesia in mice. Put plainly: Elevated plus maze (EPM), scopolamine-induced amnesia. The class given is in vivo, Balb/C mice. To be noted: then scopolamine 1 mg/kg i.p., mean ± SEM, n = 6. The procedure: as §1, §2, §3, §4, §5
The EPM consisted of two open arms and two closed arms with dimensions of 16 cm × 5 cm × 12 cm, and was made from two poly acrylic sheets and designed as a plus sign with a central platform with dimensions of 5 cm × 5 cm, which was elevated 25 cm from the floor on a wooden stand. Mice were placed in the open arm in such a position that their direction was facing away from the central platform; then, the transfer latency time (TLT) was noted when the mice moved to the closed arm with its four legs from the open arm and then returned to their home cage. […] The following formula was used for calculation of inflexion ratio (IR). IR=L0−L1/L0 where L1 = initial transfer latency (s) and L0 = retention transfer latency (s).

A further experiment deals with T1, BChE (Equus caballus, UniProt P81908).
T1 construct: obtaining AChE and BChE enzymes from electric eel and equine serum, respectively; from tissue; host or cells: equine serum
Put plainly: biochemical. Conditions: for inhibition at 62.5 µg/mL / inhibition at 125 µg/mL / inhibition at 250 µg/mL / inhibition at 500 µg/mL / inhibition at 1000 µg/mL: read-out: BChE percent enzyme inhibition, Mean ± SEM; for IC50: Ellman's method, 1000 to 62.5 μg/mL, n = 3, read-out: BChEI (IC50) (converted). The procedure: (§6) Evaluation of anticholinesterase activity of the synthesized compounds was performed according to Ellman’s method and was determined by obtaining AChE and BChE enzymes from electric eel and equine serum, respectively. DMSO was used for the dissolution of test samples (1 mg/mL), which were diluted in phosphate buffer (0.1 M) to concentrations from 1000 to 62.5 µg/mL. Phosphate buffer in 0.1 M, pH 8.0 was used for the dilution of 518 U/mg AChE and 7–16 U/mg BChE to obtain final concentrations of 0.03 U/mL and 0.01 U/mL for AChE and BChE, respectively. Substrate solutions of 0.5 mM ATchI, 0.2273 mM DTNB and 0.5 mM BTchI in distilled water were made and maintained separately in Eppendorf tubes at 8 °C in a refrigerator. The assay was started by adding 5 µL enzyme solution to a cuvette, then adding 205 µL test sample followed by 5 µL DTNB reagent. A 5 µL volume of substrate solution was added, and the solution mixture was maintained for 15 min in water bath at 30 °C. A spectrophotometer was used to measure absorbance at 412 nm at 30 °C with a reaction time of 4 min. […] The following formula was used for calculation of % enzyme inhibition.

Another experiment has as its target T2, AChE (Electrophorus electricus, UniProt O42275).
T2 construct: obtaining AChE and BChE enzymes from electric eel and equine serum, respectively; from tissue; host or cells: electric eel
Put plainly: biochemical. To be noted: for inhibition at 62.5 µg/mL / inhibition at 125 µg/mL / inhibition at 250 µg/mL / inhibition at 500 µg/mL / inhibition at 1000 µg/mL: read-out: AChE percent enzyme inhibition, Mean ± SEM; for IC50: Ellman's method, 1000 to 62.5 μg/mL, n = 3, read-out: AChEI (IC50) (converted). The procedure: as §6

Experiment [3] has as its system T3, AChE in the hippocampus region of mouse brain.
T3 construct: from tissue; host or cells: mouse brain hippocampus (supernatant of homogenate)
The class given is in vivo. To be noted: pretreatment, then scopolamine, n = 6. The procedure: as §5
(§7) The mice were sacrificed immediately after the behavioral study by cervical dislocation to provide quick and painless death to each animal before decapitation. Brain of each animal was excised in phosphate buffer saline (chilled) and incorporated into biochemical biomarker analysis.
(§8) Cholinesterase (AChE and BChE) levels were determined in the excised brain hippocampus using Ellman’s method with slight modification. Supernatant (0.4 mL), 0.1 M/L, pH 8 phosphate buffer (2.6 mL), and 100 µL of DTNB (5,5′-dithiobis-2-nitrobenzoic acid) and were added into cuvette and mixed. Spectrophotometer at 412 nm was run and absorbance was measured several times, then […] acetyl thiocholine iodide/butyrylthiocholine chloride was mixed into the reaction as substrate at an interval of 2 min, and variation in absorbance was noted and the changes in absorbance per min were recorded. The following formula was used for calculation of cholinesterase level: R = 5.74 × 10^−4 × A/CO where ‘R’ is the moles (rate) of substrate hydrolyzed/min/mg of protein, (A) is the change in absorbance/min, and ‘CO’ is concentration (20 mg/mL) of protein.

Experiment [4] relates to T4, BChE in the hippocampus region of mouse brain.
T4 construct: from tissue; host or cells: mouse brain hippocampus (supernatant of homogenate)
It is filed as in vivo. To be noted: pretreatment, then scopolamine, n = 6. The protocol:
as §5, §7, §8

T2 sequence (O42275 24-633): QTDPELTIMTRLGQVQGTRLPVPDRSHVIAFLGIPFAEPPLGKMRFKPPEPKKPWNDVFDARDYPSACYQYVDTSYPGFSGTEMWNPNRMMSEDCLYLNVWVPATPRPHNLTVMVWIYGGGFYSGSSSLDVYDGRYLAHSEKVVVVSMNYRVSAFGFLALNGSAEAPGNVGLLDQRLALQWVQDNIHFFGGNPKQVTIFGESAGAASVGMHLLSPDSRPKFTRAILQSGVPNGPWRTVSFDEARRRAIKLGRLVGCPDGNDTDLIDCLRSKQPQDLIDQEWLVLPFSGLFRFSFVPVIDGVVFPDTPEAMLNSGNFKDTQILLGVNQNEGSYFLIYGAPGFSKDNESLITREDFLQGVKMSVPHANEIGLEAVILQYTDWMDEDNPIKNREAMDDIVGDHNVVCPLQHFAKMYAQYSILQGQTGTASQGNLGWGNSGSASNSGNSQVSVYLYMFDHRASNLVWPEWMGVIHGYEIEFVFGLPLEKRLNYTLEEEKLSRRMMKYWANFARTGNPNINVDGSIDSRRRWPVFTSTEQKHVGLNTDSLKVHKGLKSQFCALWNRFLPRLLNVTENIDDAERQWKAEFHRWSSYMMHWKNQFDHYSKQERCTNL
T1 sequence (P81908 whole entry): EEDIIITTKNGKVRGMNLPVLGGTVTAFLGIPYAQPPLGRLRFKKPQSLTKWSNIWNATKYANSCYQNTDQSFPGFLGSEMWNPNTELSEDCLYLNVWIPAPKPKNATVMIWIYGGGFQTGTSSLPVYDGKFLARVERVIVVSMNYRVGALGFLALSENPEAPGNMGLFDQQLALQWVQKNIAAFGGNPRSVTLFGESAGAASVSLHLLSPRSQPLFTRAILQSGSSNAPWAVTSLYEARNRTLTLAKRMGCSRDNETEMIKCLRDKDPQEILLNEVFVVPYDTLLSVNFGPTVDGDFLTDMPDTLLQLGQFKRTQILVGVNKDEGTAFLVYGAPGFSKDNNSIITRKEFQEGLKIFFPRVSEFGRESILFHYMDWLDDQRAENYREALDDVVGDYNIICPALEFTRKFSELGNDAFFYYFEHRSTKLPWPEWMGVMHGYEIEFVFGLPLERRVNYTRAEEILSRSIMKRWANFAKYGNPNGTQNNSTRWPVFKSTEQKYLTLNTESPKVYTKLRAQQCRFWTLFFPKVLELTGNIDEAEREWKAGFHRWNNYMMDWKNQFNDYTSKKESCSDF

Turning to `COc1cc2c(cc1OC)C(=O)C(CC1CCN(Cc3ccccc3)CC1)C2` (stereo not drawn) [Donepezil, reference compound], the “% DI in exploring the novel object versus scopolamine-treated group (in words)” value in experiment [1] is “significant increase”. Also, the “Exploration time for the novel object” value in experiment [1] (short-term memory, test phase, 2 mg/kg p.o. + scopolamine 1 mg/kg i.p.) came to 21.59 ± 2.44 s. Also, in experiment [1] (short-term memory), the “Exploration time for the novel object in the test phase (in words)” value (“Exploration time … (in words)” for short) was “significantly higher exploration times”. For the same compound, the “Retention (transfer latency time, TLT)” value in experiment [2] (2 mg/kg p.o. for 7 days) worked out at 25.57 ± 1.93 s; in experiment [2] (2 mg/kg p.o. for 7 days, listed as donepezil), 25.57 ± 1.93 s.

As for `COc1ccc2c3c1O[C@H]1C[C@@H](O)C=C[C@@]31CCN(C)C2` [Galanthamine, reference compound], on BChE, the inhibition at 62.5 µg/mL came to 61.35 ± 0.18%, the inhibition at 125 µg/mL was determined as 66.2 ± 0.15%, the inhibition at 250 µg/mL turned out to be 73.42 ± 0.11% and the inhibition at 500 µg/mL amounted to 78.62 ± 0.17%.

As for `Cc1ccc(/C=C/C(=O)/C=C/c2ccc(C)cc2)cc1` [h1, (1E,4E)-1,5-Di-p-tolylpenta-1,4-dien-3-one], the figures for the inhibition at 62.5 µg/mL at AChE and at BChE (62.5 µg/mL) were 45.63 ± 0.13% and 37.16 ± 0.12%, respectively. For the same compound, the inhibition at 125 µg/mL at AChE was determined as 54.34 ± 0.17%; on BChE (125 µg/mL), 46.25 ± 0.13%. Further, the inhibition at 250 µg/mL was found to be 58.12 ± 0.16% on AChE and 51.91 ± 0.14% at BChE (250 µg/mL). In addition, the figures for the inhibition at 500 µg/mL on AChE and on BChE (500 µg/mL) were 68.07 ± 0.18% and 56.42 ± 0.16%, respectively. Moreover, the figures for the inhibition at 1000 µg/mL on AChE and at BChE were 79.67 ± 0.21% and 62.16 ± 0.04%, respectively. The IC50 on AChE is 399 µM; on BChE, 927 µM. Moreover, in experiment [1], the “% DI in exploring the novel object versus scopolamine-treated group (in words)” value is given as “significant increase”. Also, the “% DI versus scopolamine-treated group (in words)” value in experiment [1] (short-term memory, 7.5 and 15 mg/kg p.o.) was “comparable values”. Further, the “Retention (transfer latency time, TLT)” value came out at 33.13 ± 2.16 s in experiment [2] (7.5 mg/kg p.o. for 7 days) and 26.18 ± 2.32 s in experiment [2] (15 mg/kg p.o. for 7 days). In addition, the “Reversal of scopolamine-increased hippocampus AChE level (in words)” value in experiment [3] is “no prominent”. Further, the “Reversal of scopolamine-increased hippocampus BChE level (in words)” value in experiment [4] is recorded as “no promising results”.

On to `COc1ccc(/C=C/C(=O)/C=C/c2ccc(OC)cc2)cc1` [h2, (1E,4E)-1,5-bis(4-Methoxyphenyl)penta-1,4-dien-3-one], for which the inhibition at 62.5 µg/mL was 46.88 ± 0.15% at AChE and 41.82 ± 0.18% at BChE (62.5 µg/mL). Moreover, the figures for the inhibition at 125 µg/mL at AChE and on BChE (125 µg/mL) were 53.57 ± 0.17% and 48.61 ± 0.15%, respectively. For the same compound, the inhibition at 250 µg/mL on AChE was 61.21 ± 0.18%; at BChE (250 µg/mL) it was 57.22 ± 0.01%. Further, the inhibition at 500 µg/mL on AChE turned out to be 73.79 ± 0.12%; at BChE (500 µg/mL), 64.38 ± 0.06%. Moreover, the values for the inhibition at 1000 µg/mL on AChE and at BChE were 76.23 ± 0.15% and 69.77 ± 0.03%, respectively. Moreover, the IC50 at AChE was 317 µM; on BChE, 503 µM. Further, the “% DI in exploring the novel object versus scopolamine-treated group (in words)” value in experiment [1] is listed as “significant increase”. For the same compound, the “Exploration time … (in words)” value in experiment [1] (short-term memory) is “significantly more time exploring the novel object”. Moreover, the figures for the “Retention (transfer latency time, TLT)” value in experiment [2] (7.5 mg/kg p.o. for 7 days) and in experiment [2] (15 mg/kg p.o. for 7 days) were 31.51 ± 2.73 s and 25.32 ± 2.42 s, respectively. Moreover, in experiment [3], the “Reversal of scopolamine-increased hippocampus AChE level (in words)” value was “reversed”. For the same compound, in experiment [4], the “Reversal of scopolamine-increased hippocampus BChE level (in words)” value was “significantly reversed”.

In the case of `O=C(/C=C/c1ccc(Cl)cc1)/C=C/c1ccc(Cl)cc1` [h3, (1E,4E)-1,5-bis(4-Chlorophenyl)penta-1,4-dien-3-one], the inhibition at 62.5 µg/mL on AChE was 53.53 ± 0.12%; at BChE (62.5 µg/mL) it was 49.25 ± 0.02%. Besides, the figures for the inhibition at 125 µg/mL at AChE and on BChE (125 µg/mL) were 62.44 ± 0.16% and 58.33 ± 0.13%, respectively. Besides, the values for the inhibition at 250 µg/mL at AChE and at BChE (250 µg/mL) were 69.51 ± 0.13% and 62.41 ± 0.19%, respectively. Besides, the inhibition at 500 µg/mL amounted to 77.25 ± 0.11% on AChE and 69.52 ± 0.12% on BChE (500 µg/mL). For the same compound, the inhibition at 1000 µg/mL on AChE was found to be 83.31 ± 0.13%; at BChE, 78.72 ± 0.16%. The results for the IC50 at AChE and at BChE were 96.9 µM and 222 µM, respectively. The “% DI in exploring the novel object versus scopolamine-treated group (in words)” value in experiment [1] was “significant increase”. Also, in experiment [1] (short-term memory), the “Exploration time … (in words)” value is listed as “significantly more time exploring the novel object”. The entries for the “Retention (transfer latency time, TLT)” value in experiment [2] (7.5 mg/kg p.o. for 7 days) and in experiment [2] (15 mg/kg p.o. for 7 days) were 25.26 ± 2.51 s and 21.27 ± 2.92 s, respectively. For the same compound, the “Reversal of scopolamine-increased hippocampus AChE level (in words)” value in experiment [3] is listed as “reversed”. Also, the “Reversal of scopolamine-increased hippocampus BChE level (in words)” value in experiment [4] is on record as “significantly reversed”.
